Measured values: patent US9175030B2, “Derivatives of avicin D and methods of making and using thereof” (priority 2012, dated 2015)

What was measured:
BT549 = experiment: MTT growth inhibition, BT549; type: cell-based; conditions: BT549 cells, 72 hrs
Protocol: (§1) The growth inhibitory effects of avicin D and oxetane derivative were measured using the MTT [3-(4,5-dimethylthiazol-2-yl)-2,5-diphenyl tetrazolium bromide] reduction assay as described in Haridas et al. (2001). Cells were cultured with varying concentrations of avicin D or oxetane in 96-well plates for 72 hrs at 37° C. At the end of 72 hrs, cells were stained with MTT for 2 hrs and then incubated with lysis buffer (20% SDS in 50% N,N-dimethylformamide) for another 6 hrs. Optical density at 570 nm was used as a measure of cell viability.
(§2) The cell lines 769P, A498, CAKI-1, and CAKI-2 are derived from primary human renal-cell cancers (RCC). A549 is a human lung adenocarcinoma epithelial cell line. B16F10 is a mouse melanoma cell line. BT474, BT 474 M1, BT549, MCF7, […], and ZR751 are breast cancer cell lines. CCRF-CEM, Jurkat, and MOLT4 are leukemia cell lines. HELA is cell line derived from cervical caner. HepG2 is a human hepatocellular liver carcinoma cell line. JeKo-1 is a mantle cell lymphoma (MCL) cell line. LnCAP is a cell line was established from a metastatic lesion of human prostatic adenocarcinoma. MM.1 and RPMI-8226 are human multiple myeloma cell lines. OVCAR3 and SKOV3 are ovarian cancer cell lines. Panc-1 is a pancreatic cancer cell line. PC3 is a prostate cancer cell line. Raji is a Burkitt's lymphoma cell line. RL is a non-Hodgkin's lymphoma cell line. […]

HS27 = experiment: MTT growth inhibition, HS27; type: cell-based; conditions: HS27 human foreskin fibroblast cells, 72 hrs
Protocol: as §1, §2

OVCAR3 = experiment: MTT growth inhibition, OVCAR3; type: cell-based; conditions: OVCAR3 cells, 72 hrs
Protocol: as §1, §2

A549 = experiment: MTT growth inhibition, A549; type: cell-based, human; conditions: A549 cells, 72 hrs
Protocol: as §1, §2

[1] = tested on: Jurkat (human T-cell leukemia) cells; experiment: Reduction in cell viability, Jurkat cells (Table 6); type: cell-based; conditions: 50% reduction in cell viability
Excerpt: The IC50 values indicate the concentrations of avicin D/compound 8 required to induce a 50% reduction in call viability. These studies were done in Jurkat (human T-cell leukemia) cells and have been described previously in Haridas et al., 2001, which is incorporated herein by reference.

BT474 M1 = experiment: MTT growth inhibition, BT474 M1; type: cell-based; conditions: BT474 M1 cells, 72 hrs
Protocol: as §1, §2

RL = experiment: MTT growth inhibition, RL; type: cell-based; conditions: RL cells, 72 hrs
Protocol: as §1, §2

B16F10 = experiment: MTT growth inhibition, B16F10; type: cell-based, mouse; conditions: B16F10 cells, 72 hrs
Protocol: as §1, §2

769P = experiment: MTT growth inhibition, 769P; type: cell-based, human; conditions: 769P cells, 72 hrs
Protocol: as §1, §2

RPMI 8226 = experiment: MTT growth inhibition, RPMI 8226; type: cell-based, human; conditions: RPMI 8226 cells, 72 hrs
Protocol: as §1, §2

MM1 = experiment: MTT growth inhibition, MM1; type: cell-based, human; conditions: MM1 cells, 72 hrs
Protocol: as §1, §2

ZR751 = experiment: MTT growth inhibition, ZR751; type: cell-based; conditions: ZR751 cells, 72 hrs
Protocol: as §1, §2

[2] = tested on: PKA-mediated CREB activity; conditions: cited from earlier work
LnCAP = experiment: MTT growth inhibition, LnCAP; type: cell-based, human; conditions: LnCAP cells, 72 hrs
Protocol: as §1, §2

HepG2 = experiment: MTT growth inhibition, HepG2; type: cell-based, human; conditions: HepG2 cells, 72 hrs
Protocol: as §1, §2

Panc-1 = experiment: MTT growth inhibition, Panc-1; type: cell-based; conditions: Panc-1 cells, 72 hrs
Protocol: as §1, §2

[3] = tested on: HMLE cells expressing TWIST; experiment: Mammosphere formation, cancer stem cell model; type: cell-based, human; conditions: 60 nM, added day 7 and every 7th day, seen on day 21
Protocol: Human mammary epithelial cells were transfected with transcription factor TWIST acquiring mesenchymal stem cell-like traits, including the ability to form mammospheres. See Cano et al., 2000; Yang et al., Cell, 2004; Mani et al., 2008, which are all incorporated herein by reference.
HMLE cells expressing TWIST were plated at 100 cells/0.1 ml in 96-well plates. The cells were cultured in MEGM media supplemented with 20 ng/mL bFGF, 10 ng/mL EGF, 4 ug/mL heparin, and 1% methyl cellulose. Formation of spheres could be seen around day 7. Avicin D/Compound 8 (60 nM) was first added to the cultures on day 7 and subsequently every 7th day. […] See FIGS. 6A-D, which show mammospheres treated with 60 nM of Avicin D or Compound 8 for fourteen days. The ability of these agents to induce cell kill in both the tumor cell population as well as the stem-like cells enhances their potential for use as a cancer therapy.

adiponectin = conditions: adipocytes; cited from earlier work
MINO = experiment: MTT growth inhibition, MINO; type: cell-based; conditions: MINO cells, 72 hrs
Protocol: as §1, §2

3T3-L1 cells = conditions: cited from earlier work
IL-6 = IL-6 expression, constitutive and TNF-induced (FIG. 2B); type: cell-based
HEK293 = experiment: MTT growth inhibition, HEK293; type: cell-based, human; conditions: HEK293 cells, 72 hrs
Protocol: as §1, §2

GM0131 = experiment: MTT growth inhibition, GM0131; type: cell-based; conditions: GM0131 wild type human fibroblast cells, 72 hrs
Protocol: as §1, §2

[4] = tested on: p(IL6-κB)350hu.IL6P-Luc in HEK 293T cells; experiment: TNF-induced NF-κB luciferase reporter in HEK 293T cells with and without GR (FIG. 3); type: cell-based
Excerpt: However, TNF-induced activation of p(IL6-κB)350hu.IL6P-Luc was inhibited by both avicin D and Dex in HEK 293T cells transfected with GR (FIG. 3). […] This observation supports the notion that avicins are not able to induce GR transactivation.

MCF7 = experiment: MTT growth inhibition, MCF7; type: cell-based; conditions: MCF7 cells, 72 hrs
Protocol: as §1, §2

For C=C[C@](C)(O)CC/C=C(\CO)C(=O)O[C@H]1[C@H](O)[C@@H](O)[C@H](O[C@@](C)(C=C)CC/C=C(\CO)C(=O)O[C@H]2C[C@]3(C(=O)O[C@@H]4O[C@H](CO)[C@@H](O)[C@H](O)[C@H]4O[C@@H]4O[C@@H](C)[C@H](O[C@@H]5O[C@@H](CO)[C@H](O)[C@H]5O)[C@@H](O[C@@H]5O[C@H](CO)[C@@H](O)[C@H](O)[C@H]5O)[C@H]4O)[C@H](O)C[C@]4(C)C(=CC[C@@H]5[C@@]6(C)CC[C@H](O[C@@H]7O[C@H](CO[C@@H]8O[C@H](C)[C@H](O)[C@H](O)[C@H]8O[C@@H]8OC[C@@H](O)[C@H](O)[C@H]8O)[C@@H](O)[C@H](O)[C@H]7NC(C)=O)C(C)(C)[C@@H]6CC[C@]54C)[C@@H]3CC2(C)C)O[C@@H]1C [Avicin D], the IC50 (BT549) was 4.8 µM, the IC50 (HS27) was 6.1 µM and the IC50 (OVCAR3) was 1300 nM. For the same molecule, the IC50 (A549) was 6.9 µM, the IC50 [1] was 180 nM and the IC50 (BT474 M1) was 1100 nM. For the same molecule, the IC50 (RL) was 310 nM, the IC50 (B16F10) was 660 nM and the IC50 (769P) was 360 nM. For the same molecule, the IC50 (RPMI 8226) was 300 nM, the IC50 (MM1) was 100 nM and the IC50 (ZR751) was 670 nM. The “PKA-mediated CREB activity” value [2] was “inhibited PKA-mediated CREB activity”, the IC50 (LnCAP) was 470 nM and the IC50 (HepG2) was 440 nM. The IC50 (Panc-1) was 520 nM, the “development of mammospheres as measured by the size of the spheres” value [3] was “appear to inhibit the development of these spheres” and the “expression and secretion of adiponectin” value (adiponectin) was “increased the expression and secretion of adiponectin”. For the same molecule, the IC50 (MINO) was 420 nM, the adipogenesis (3T3-L1 cells) was “inhibit adipogenesis” and the intracellular triglyceride level (3T3-L1 cells) was “reduce intracellular triglyceride level in a dose-dependent manner”. For the same molecule, the “expression of IL-6” value (IL-6) was “suppresses the expression of both constituitive and TNF-induced IL-6”, the IC50 (HEK293) was 6.5 µM and the IC50 (GM0131) was 30.1 µM. For the same molecule, the “TNF-induced activation of p(IL6-κB)350hu.IL6P-Luc” value ([4]; HEK 293T cells transfected with GR) was “inhibited”, the luciferase activity ([4]; wild type HEK 293T cells (no GR)) was “neither avicin D nor dexamethasone had an effect” and the IC50 (MCF7) was 15.2 µM.
